The assay deals with P388 leukemia ip, CD2F1 mice, survival T/C. The assay can be described thus: NCI In Vivo Anticancer Drug Screen. Data for tumor model P388 Leukemia (intraperitoneal) in CD2F1 (CDF1) mice. The note with it: endpoint: median survival time, higher = longer survival. Put shortly: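 Mice carrying the transplanted tumor received test compound or vehicle. Survival was recorded in each group, and the value is the treated-group measurement divided by that of the vehicle-treated control group.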

Setting [1] is: dose: 50.0 mg/kg/injection, schedule: Q01DX005 (ip), vehicle: saline with Tween-80.
[2] abbreviates: dose: 100.0 mg/kg/injection, schedule: Q01DX005 (ip), vehicle: saline with Tween-80.
The mark [3] stands for this setting: dose: 200.0 mg/kg/injection, schedule: Q01DX005 (ip), vehicle: saline with Tween-80.
Where [4] appears, read: dose: 50.0 mg/kg/injection, schedule: Q01DX009 (ip), vehicle: Klucel (hydroxypropylcellulose) (HPC).
Where [5] appears, read: dose: 100.0 mg/kg/injection, schedule: Q01DX009 (ip), vehicle: Klucel (hydroxypropylcellulose) (HPC).
The mark [6] stands for this setting: dose: 200.0 mg/kg/injection, schedule: Q01DX009 (ip), vehicle: Klucel (hydroxypropylcellulose) (HPC).
Setting [7] is: dose: 50.0 mg/kg/injection, schedule: Q01DX009 (ip), vehicle: saline.
[8] abbreviates: dose: 100.0 mg/kg/injection, schedule: Q01DX009 (ip), vehicle: saline with Tween-80.
The mark [9] stands for this setting: dose: 200.0 mg/kg/injection, schedule: Q01DX009 (ip), vehicle: saline with Tween-80.
[10] abbreviates: dose: 400.0 mg/kg/injection, schedule: Q01DX009 (ip), vehicle: saline with Tween-80.

Values joined by “and” are separate entries in the source; they are usually repeats but may differ in a detail not shown here. Equal values may be shown once. Inconclusive results and toxic doses are left out.

Take `N#Cc1cnc(N)[nH]c1=O`: the T/C is, setting by setting: (dose: 15.0 mg/kg/injection, schedule: Q01DX005 (ip), vehicle: Klucel (hydroxypropylcellulose) (HPC)) 101 % of control; (dose: 30.0 mg/kg/injection, schedule: Q01DX005 (ip), vehicle: Klucel (hydroxypropylcellulose) (HPC)) 97 % of control; (dose: 60.0 mg/kg/injection, schedule: Q01DX005 (ip), vehicle: Klucel (hydroxypropylcellulose) (HPC)) 98 % of control and 99 % of control.

On to `C1COCCCOCCCOCCCC2(CCCOCCCOC1)CO2`, for which the T/C runs as follows: under setting [1], 110 % of control; under setting [2], 86 % of control; under setting [3], 109 % of control.

On to `Cc1nn(C(=O)c2cccnc2)c(-c2ccccc2)c1N=Nc1ccc(C(=O)O)cc1`, for which the T/C runs as follows: under setting [1], 93 % of control; under setting [2], 93 % of control.

`CN(C)C(=O)c1cc(N2CC2)c([N+](=O)[O-])cc1[N+](=O)[O-]`: the T/C is, setting by setting: (dose: 1.56 mg/kg/injection, schedule: Q01DX009 (ip), vehicle: saline with Tween-80) 98 % of control and 117 % of control; (dose: 3.12 mg/kg/injection, schedule: Q01DX009 (ip), vehicle: saline with Tween-80) 115 % of control; (dose: 6.25 mg/kg/injection, schedule: Q01DX009 (ip), vehicle: saline with Tween-80) 100 % of control and 101 % of control and 113 % of control; (dose: 25.0 mg/kg/injection, schedule: Q01DX009 (ip), vehicle: saline with Tween-80) 110 % of control.

Regarding `CCNC(=S)N/N=C(/c1ccccc1)c1ccccn1`, the T/C was 105 % of control under setting [4], 95 % of control under setting [5] and 115 % of control under setting [6].

Take `Cc1cc(CCO)n[nH]1`: the T/C was 97 % of control under setting [7]; 100 % of control (dose: 100.0 mg/kg/injection, schedule: Q01DX009 (ip), vehicle: saline); 100 % of control (dose: 200.0 mg/kg/injection, schedule: Q01DX009 (ip), vehicle: saline).

For `O=C(Nc1cccc(Cl)c1)Nc1ccc[nH]c1=O`, the T/C reads like this: (dose: 50.0 mg/kg/injection, schedule: Q01DX009 (ip), vehicle: saline with Tween-80) 101 % of control; under setting [8], 109 % of control; under setting [9], 109 % of control.

In the case of `O=C(NCCS(=O)(=O)O)C1CCCN1` (configuration not stated), the T/C by setting is: (dose: 60.0 mg/kg/injection, schedule: Q01DX005 (ip), vehicle: saline) 100 % of control; (dose: 120.0 mg/kg/injection, schedule: Q01DX005 (ip), vehicle: saline) 100 % of control; (dose: 240.0 mg/kg/injection, schedule: Q01DX005 (ip), vehicle: saline) 99 % of control.

On to `C=C(C)CNC(=O)C(C)O` (configuration not stated), for which the T/C by setting is: under setting [1], 97 % of control; under setting [2], 93 % of control; under setting [3], 99 % of control.

For `[CH3][Sn]([CH3])([CH3])[O][N+](=O)[O-]`, the T/C by setting is: (dose: 0.37 mg/kg/injection, schedule: Q01DX009 (ip), vehicle: saline) 111 % of control; (dose: 0.75 mg/kg/injection, schedule: Q01DX009 (ip), vehicle: saline) 91 % of control.

In the case of `COc1ccc2c(N)c3cccc[n+]3cc2c1OC`, the T/C (dose: 6.25 mg/kg/injection, schedule: Q04DX003 (ip), vehicle: water) is 106 % of control and 108 % of control; the T/C (dose: 12.5 mg/kg/injection, schedule: Q04DX003 (ip), vehicle: water) was 116 % of control and 121 % of control; the T/C (dose: 25.0 mg/kg/injection, schedule: Q04DX003 (ip), vehicle: water) was 118 % of control and 122 % of control; the T/C (dose: 50.0 mg/kg/injection, schedule: Q04DX003 (ip), vehicle: water) is 103 % of control.

Turning to `CCC[CH2][Sn]1([CH2]CCC)[O]c2ccccc2[O]1`, the T/C is, setting by setting: (dose: 0.39 mg/kg/injection, schedule: Q01DX005 (ip), vehicle: saline with Tween-80) 103 % of control; (dose: 0.78 mg/kg/injection, schedule: Q01DX005 (ip), vehicle: saline with Tween-80) 106 % of control; (dose: 1.56 mg/kg/injection, schedule: Q01DX005 (ip), vehicle: saline with Tween-80) 109 % of control and 124 % of control; (dose: 3.12 mg/kg/injection, schedule: Q01DX005 (ip), vehicle: Klucel (hydroxypropylcellulose) (HPC)) 100 % of control; (dose: 3.12 mg/kg/injection, schedule: Q01DX005 (ip), vehicle: saline with Tween-80) 123 % of control; (dose: 6.25 mg/kg/injection, schedule: Q01DX005 (ip), vehicle: Klucel (hydroxypropylcellulose) (HPC)) 105 % of control. The T/C (dose: 12.5 mg/kg/injection, schedule: Q01DX005 (ip), vehicle: Klucel (hydroxypropylcellulose) (HPC)) is 107 % of control.

In the case of `CSc1cc(=O)n2c3ccccc3c3ccnc1c32`, the T/C was 100 % of control and 120 % of control (dose: 2.5 mg/kg/injection, schedule: Q01DX009 (ip), vehicle: saline with Tween-80); 116 % of control (dose: 5.0 mg/kg/injection, schedule: Q01DX009 (ip), vehicle: saline with Tween-80); 156 % of control (dose: 10.0 mg/kg/injection, schedule: Q01DX009 (ip), vehicle: saline with Tween-80).

As to `Clc1nc(-c2ccccc2)nc(-c2ccccc2)n1`, the T/C is 104 % of control (dose: 100.0 mg/kg/injection, schedule: Q04DX002 (ip), vehicle: saline); 100 % of control (dose: 200.0 mg/kg/injection, schedule: Q04DX002 (ip), vehicle: saline); 109 % of control (dose: 400.0 mg/kg/injection, schedule: Q04DX002 (ip), vehicle: saline).

On to `COc1cc(/C=N/NC(=O)COc2ccccc2)ccc1O`, for which the T/C reads like this: (dose: 60.0 mg/kg/injection, schedule: Q01DX005 (ip), vehicle: saline with Tween-80) 100 % of control; (dose: 120.0 mg/kg/injection, schedule: Q01DX005 (ip), vehicle: saline with Tween-80) 103 % of control; (dose: 240.0 mg/kg/injection, schedule: Q01DX005 (ip), vehicle: saline with Tween-80) 98 % of control.

Turning to `CC1C2CC3OC(=O)C1C3C2` (configuration not stated), the T/C is 102 % of control (dose: 12.5 mg/kg/injection, schedule: Q01DX005 (ip), vehicle: saline with Tween-80); 102 % of control (dose: 25.0 mg/kg/injection, schedule: Q01DX005 (ip), vehicle: saline with Tween-80); 99 % of control and 106 % of control under setting [1].

Consider `CCOCCOCCOC(C)OC(C)Cc1ccc2c(c1)OCO2` (configuration not stated), for which the T/C under setting [1] is 106 % of control, the T/C under setting [2] is 95 % of control and the T/C under setting [3] was 112 % of control.

Consider `COC1=CC(=O)C2CC=C(C)C3CC(=O)OC1C23C` (configuration not stated), for which the T/C reads like this: (dose: 100.0 mg/kg/injection, schedule: Q04DX002 (ip), vehicle: Klucel (hydroxypropylcellulose) (HPC)) 100 % of control; (dose: 200.0 mg/kg/injection, schedule: Q04DX002 (ip), vehicle: Klucel (hydroxypropylcellulose) (HPC)) 95 % of control; (dose: 400.0 mg/kg/injection, schedule: Q04DX002 (ip), vehicle: Klucel (hydroxypropylcellulose) (HPC)) 98 % of control.

As for `COc1ccc(NC(=O)CCC(=O)Oc2ccccc2)cc1`, the T/C reads like this: under setting [8], 100 % of control; under setting [10], 94 % of control.

As for `C/C(CC(c1ccccc1)N1CCc2ccccc2C1)=N/O` (configuration not stated), the T/C reads like this: under setting [8], 100 % of control; under setting [9], 100 % of control; under setting [10], 100 % of control.

For the compound `CS(=O)(=O)OCC(COS(C)(=O)=O)(COS(C)(=O)=O)COS(C)(=O)=O`, the T/C under setting [4] was 93 % of control, the T/C under setting [5] was 99 % of control and the T/C under setting [6] was 94 % of control.

Regarding `CC(C)CC(NC(=O)C(Cc1ccccc1)NC(=O)CNC(=O)CNC(=O)C(N)Cc1ccc(O)cc1)C(=O)O` (configuration not stated), the T/C runs as follows: (dose: 12.5 mg/kg/injection, schedule: Q01DX005 (ip), vehicle: water) 110 % of control; (dose: 25.0 mg/kg/injection, schedule: Q01DX005 (ip), vehicle: water) 103 % of control; (dose: 50.0 mg/kg/injection, schedule: Q01DX005 (ip), vehicle: water) 95 % of control; (dose: 100.0 mg/kg/injection, schedule: Q01DX005 (ip), vehicle: water) 98 % of control; (dose: 200.0 mg/kg/injection, schedule: Q01DX005 (ip), vehicle: water) 100 % of control.

Turning to `Cc1ccc(S(=O)(=O)OC2CCCC2)cc1`, the T/C is, setting by setting: (dose: 50.0 mg/kg/injection, schedule: Q01DX009 (ip), vehicle: other) 100 % of control; (dose: 100.0 mg/kg/injection, schedule: Q01DX009 (ip), vehicle: other) 103 % of control; (dose: 200.0 mg/kg/injection, schedule: Q01DX009 (ip), vehicle: other) 89 % of control.

Take `Nc1cccc2nccn12`: the T/C by setting is: (dose: 12.5 mg/kg/injection, schedule: Q01DX009 (ip), vehicle: saline) 105 % of control; (dose: 25.0 mg/kg/injection, schedule: Q01DX009 (ip), vehicle: saline) 102 % of control; under setting [7], 104 % of control and 95 % of control.
